Test systems include U-251; SK-OV-3; RXF 393; NCI-H522; SF-268; CAKI-1; DU-145; NCI-H23; MDA-N; OVCAR-5; SK-MEL-28; UO-31; K562; NCI/ADR-RES; HCT-15; OVCAR-4; MDA-MB-231; MCF7; KM12; HL-60.
What all share (assay): DTP human tumour cell line panel, 48 h

The structures appear in SMILES notation. Where a name gives a salt, the structure may show the parent alone.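 Growth conditions: 96-well plates. Treatment: test compound, 48 hours, 5 concentrations. Analysis: linear interpolation between bracketing concentrations; unreached endpoints set to highest concentration. Here, GI50 denotes the concentration required for 50% inhibition of growth.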 Active and inactive are the calls of the source. Cut-off read from the data, not from the text of the source: active = GI50 up to about 1.1 µM and inactive = higher.

As usually defined, the GI50 is the concentration at which growth is held to half of that of the control.

Take `C[N+](C)(C)CC1CCCC(C[N+](C)(C)C)C1=O` (stereo not given): the GI50 with U-251 is 3.35 µM (inactive); in the test on SK-OV-3, 13.7 µM (inactive); in the test on RXF 393, 1.69 µM (inactive); in the test with NCI-H522, 0.447 µM (active); in the test with SF-268, 7.31 µM (inactive); in the test with CAKI-1, 0.984 µM (active). In addition, the GI50 in the test with DU-145 was 5.75 µM (inactive); in the test on NCI-H23 it was 2.42 µM (inactive); in the test on MDA-N it was 3.49 µM (inactive); in the test with OVCAR-5, 3.52 µM (inactive); in the test with SK-MEL-28, 1.85 µM (inactive); in the test with UO-31 it was 1.67 µM (inactive). Besides, the GI50 with K562 was 0.0724 µM (active); in the test with NCI/ADR-RES, 2.59 µM (inactive); in the test with HCT-15 it was 0.308 µM; with OVCAR-4, 0.641 µM (active); in the test on MDA-MB-231, 2.01 µM (inactive); with MCF7, 0.506 µM (active). For the same compound, the results for the GI50 with KM12 and in the test with HL-60 were 4.66 µM (inactive) and 0.272 µM (active), respectively.
Regarding `COc1cccc(-c2nnc3c(-c4ccccc4)nc4ccccc4n23)c1`, the GI50 with U-251 was 21.8 µM (inactive); in the test on SK-OV-3, 73.8 µM (inactive); with RXF 393 it was 8.38 µM (inactive); with NCI-H522, 3.37 µM (inactive); in the test on SF-268, > 100 µM (inactive); in the test on CAKI-1, 33.6 µM (inactive). For the same compound, the GI50 in the test with DU-145 is 42.5 µM (inactive); in the test on NCI-H23, 30.1 µM (inactive); in the test on MDA-N it was 3.5 µM (inactive); in the test on OVCAR-5, > 100 µM (inactive); in the test on SK-MEL-28 it was > 77.4 µM (inactive); with UO-31, 10.5 µM (inactive). Also, the GI50 with K562 is 4.11 µM (inactive); in the test with NCI/ADR-RES, 14.4 µM (inactive); in the test with HCT-15, 7.23 µM; in the test with OVCAR-4, 9.86 µM (inactive); with MDA-MB-231, 24.5 µM (inactive); in the test on MCF7 it was 14.4 µM (inactive). For the same compound, the results for the GI50 with KM12 and in the test on HL-60 were 4.94 µM (inactive) and 7.18 µM (inactive), respectively.
With `COC(=O)[C@H](Cc1ccc(OC(C)(C)C)cc1)N[C@H](C)C(=O)N[C@@H](Cc1ccccc1)C(=O)OCc1ccccc1`, the GI50 with U-251, with SK-OV-3, in the test with RXF 393, in the test with NCI-H522, in the test on SF-268 and in the test on CAKI-1 was > 100 µM (inactive) throughout. For the same compound, the GI50 in the test with DU-145 is > 100 µM (inactive); with NCI-H23 it was > 100 µM (inactive); in the test on MDA-N it was > 100 µM (inactive); in the test on OVCAR-5 it was > 100 µM (inactive); with SK-MEL-28 it was > 100 µM (inactive); in the test with UO-31 it was 14.8 µM (inactive). Besides, the GI50 was 25.6 µM (inactive) in the test with K562; > 100 µM (inactive) in the test on NCI/ADR-RES; more than 100 µM in the test with HCT-15; > 100 µM (inactive) in the test on OVCAR-4; > 100 µM (inactive) in the test on MDA-MB-231; 34.5 µM (inactive) in the test with MCF7. Also, the GI50 was 83.9 µM (inactive) in the test with KM12 and 45.5 µM (inactive) with HL-60.
Take `N/N=C1\C(OC(=O)Nc2cccc(Cl)c2)=Nc2ccccc21`: the GI50 in the test with U-251 is 6.9 µM (inactive); in the test on SK-OV-3 it was 7.43 µM (inactive); in the test with RXF 393, 13 µM (inactive); in the test on NCI-H522, 3.13 µM (inactive); in the test on SF-268 it was 12.1 µM (inactive); with CAKI-1 it was 4.47 µM (inactive). In addition, the GI50 in the test on DU-145 was 8.39 µM (inactive); with NCI-H23, 5.07 µM (inactive); with MDA-N, 3.12 µM (inactive); in the test with OVCAR-5, 14 µM (inactive); with SK-MEL-28 it was 14.8 µM (inactive); in the test on UO-31 it was 5.32 µM (inactive). In addition, the GI50 in the test on K562 is 5.92 µM (inactive); with NCI/ADR-RES, 6.4 µM (inactive); in the test on HCT-15 it was 6.89 µM; with OVCAR-4, 7.33 µM (inactive); in the test on MDA-MB-231, 12.1 µM (inactive); in the test on MCF7, 8.51 µM (inactive). Also, the GI50 is 4.58 µM (inactive) in the test with KM12 and 13.6 µM (inactive) in the test with HL-60.
As to `O=C1NC(=O)C(F)(n2cc(F)c(=O)[nH]c2=O)C(O)N1` (stereo not given), the GI50 with U-251, in the test with SK-OV-3, in the test on RXF 393, with NCI-H522, in the test with SF-268 and in the test with CAKI-1 was > 10 µM (inactive) in each case. The GI50 in the test on DU-145, in the test on NCI-H23, with MDA-N, in the test with OVCAR-5, with SK-MEL-28 and with UO-31 was > 10 µM (inactive) each time. Besides, the GI50 with K562 was > 10 µM (inactive); in the test on NCI/ADR-RES, > 10 µM (inactive); in the test with HCT-15, more than 10 µM; with OVCAR-4, > 10 µM (inactive); in the test with MDA-MB-231, > 10 µM (inactive); in the test with MCF7, > 10 µM (inactive). The GI50 in the test with KM12 and with HL-60 was > 10 µM (inactive) each time.
For the compound `CC(C)(C)OC(=O)NCCCNC1(c2cc3ccccc3s2)CCCCC1`, the GI50 with U-251 is 21.3 µM (inactive); with SK-OV-3, 13.2 µM (inactive); in the test on RXF 393, 14.8 µM (inactive); with NCI-H522 it was 14.2 µM (inactive); in the test on SF-268, 16.7 µM (inactive); in the test with CAKI-1, 13.6 µM (inactive). The GI50 was 16.9 µM (inactive) in the test on DU-145; 13 µM (inactive) in the test with NCI-H23; 15.1 µM (inactive) in the test on MDA-N; 13.7 µM (inactive) in the test with OVCAR-5; 14.9 µM (inactive) in the test with SK-MEL-28; 12.6 µM (inactive) with UO-31. Moreover, the GI50 in the test on K562 is 10.5 µM (inactive); in the test on NCI/ADR-RES, 15.2 µM (inactive); in the test on HCT-15, 14.9 µM; in the test with OVCAR-4, 15.2 µM (inactive); with MDA-MB-231, 17.6 µM (inactive); in the test on MCF7, 15.9 µM (inactive). Moreover, the GI50 with KM12 is 17 µM (inactive); with HL-60 it was 10.5 µM (inactive).
As for `CC(C)CC(NC(O)[BH2-][N+](C)(C)C)C(=O)NC(Cc1ccccc1)C(=O)N[C@H]1c2ccsc2/C(=N/O)[C@H]1O` (stereo not given in full), the GI50 in the test on U-251, in the test on SK-OV-3, in the test with RXF 393, with NCI-H522, with SF-268 and in the test with CAKI-1 was > 100 µM (inactive) throughout. Besides, the GI50 in the test on DU-145, with NCI-H23, in the test with MDA-N, with OVCAR-5, in the test on SK-MEL-28 and in the test with UO-31 was > 100 µM (inactive) each time. For the same compound, the GI50 in the test on K562 was > 100 µM (inactive); in the test with NCI/ADR-RES, > 100 µM (inactive); in the test on HCT-15, more than 100 µM; in the test on OVCAR-4, > 100 µM (inactive); in the test on MDA-MB-231 it was > 100 µM (inactive); in the test on MCF7, > 100 µM (inactive). The GI50 in the test on KM12 and in the test with HL-60 was > 100 µM (inactive) throughout.
Turning to `CO[C@@H]1[C@H](OC(=O)NC(=O)CCl)CC[C@]2(CO2)[C@H]1[C@@]1(C)O[C@@H]1CC=C(C)C` [O-CHLOROACETYLCARBAMOYLFUMAGILLOL], the GI50 in the test with U-251 is 3.08 µM (inactive); in the test on SK-OV-3 it was 15.3 µM (inactive); with RXF 393, 8.36 µM (inactive); in the test with NCI-H522, 5.35 µM (inactive); in the test with SF-268, 13.6 µM (inactive); with CAKI-1, 11 µM (inactive). Also, the GI50 in the test with DU-145 is 12.2 µM (inactive); in the test on NCI-H23 it was 15.8 µM (inactive); in the test on MDA-N it was 11.4 µM (inactive); in the test with OVCAR-5 it was 17.3 µM (inactive); in the test on SK-MEL-28, 12.8 µM (inactive); with UO-31 it was 9.89 µM (inactive). The GI50 was 12.2 µM (inactive) with K562; 16 µM (inactive) in the test on NCI/ADR-RES; 14.1 µM with HCT-15; 14.4 µM (inactive) in the test with OVCAR-4; 15.9 µM (inactive) in the test on MDA-MB-231; 12.4 µM (inactive) with MCF7. Besides, the GI50 was 11.5 µM (inactive) in the test with KM12 and 2.54 µM (inactive) in the test with HL-60.
On to `CC[C@@H]1C(=O)OC[C@@H]1Cc1cncn1C` [PILOCARPINE HYDROCHLORIDE], for which the GI50 in the test on U-251, in the test on SK-OV-3, with RXF 393, with NCI-H522, with SF-268 and in the test with CAKI-1 was > 100 µM (inactive) in each case. Moreover, the GI50 in the test with DU-145, with NCI-H23, in the test on MDA-N, in the test with OVCAR-5, in the test on SK-MEL-28 and in the test with UO-31 was > 100 µM (inactive) each time. Further, the GI50 is > 100 µM (inactive) in the test with K562; > 100 µM (inactive) in the test on NCI/ADR-RES; more than 100 µM in the test on HCT-15; > 100 µM (inactive) with OVCAR-4; > 100 µM (inactive) in the test on MDA-MB-231; > 100 µM (inactive) with MCF7. Moreover, the GI50 with KM12 and in the test with HL-60 was > 100 µM (inactive) in each case.

Values taken from ChEMBL document CHEMBL1201862, “PubChem BioAssay data set” (2004).
